Measured values from patent publication US11180462B2, “Microbiocidal oxadiazole derivatives” (SYNGENTA PARTICIPATIONS AG, priority 2015, dated 2021).

tested on: Puccinia recondita f. Sp. Tritici; assay: Fungicidal activity against Puccinia recondita f. sp. tritici / wheat / leaf disc preventative (brown rust); assay type: in vivo; conditions: foliar, 200 ppm in the applied formulation, wheat leaf segments, preventative, compared to untreated control leaf disks, read-out: disease control
Protocol: Leaf disks or leaf segments of various plant species are cut from plants grown in a greenhouse. The cut leaf disks or segments are placed in multiwell plates (24-well format) onto water agar. The leaf disks are sprayed with a test solution before (preventative) or after (curative) inoculation. Compounds to be tested are prepared as DMSO solutions (max. 10 mg/ml) which are diluted to the appropriate concentration with 0.025% Tween20 just before spraying. The inoculated leaf disks or segments are incubated under defined conditions (temperature, relative humidity, light, etc.) according to the respective test system. A single evaluation of disease level is carried out 3 to 14 days after inoculation, depending on the pathosystem. Percent disease control relative to the untreated check leaf disks or segments is then calculated.
Fungicidal Activity Against Puccinia recondita f. Sp. Tritici/Wheat/Leaf Disc Preventative (Brown Rust)
Wheat leaf segments cv. Kanzler were placed on agar in multiwell plates (24-well format) and sprayed with the formulated test compound diluted in water. The leaf disks were inoculated with a spore suspension of the fungus 1 day after application. The inoculated leaf segments were incubated at 19° C. and 75% relative humidity (rh) under a light regime of 12 hours light/12 hours darkness in a climate cabinet and the activity of a compound was assessed as percent disease control compared to untreated when an appropriate level of disease damage appears in untreated check leaf segments (7 to 9 days after application).
The following compounds at 200 ppm in the applied formulation give at least 80% disease control in this test when compared to untreated control leaf disks under the same conditions, which show extensive disease development.

Compound	pest or weed control at 200 ppm [%]
CON(Cc1ccc(-c2noc(C(F)(F)F)n2)cc1)C(=O)C1C(C=C(Cl)Cl)C1(C)C (stereo not drawn) [Compound 1.62, 3-(2,2-dichlorovinyl)-N-methoxy-2,2-dimethyl-N-[[4-[5-(trifluoromethyl)-1,2,4-oxadiazol-3-yl]phenyl]methyl]-cyclopropane-carboxamide]	≥ 80
O=C(Cc1ccc(C(F)(F)F)cc1)N(Cc1ccc(-c2noc(C(F)(F)F)n2)cc1)C1CC1 [Compound 1.140, N-cyclopropyl-N-[[4-[5-(trifluoromethyl)-1,2,4-oxadiazol-3-yl]phenyl]methyl]-2-[4-(trifluoromethyl)-phenyl]acetamide]	≥ 80

tested on: Glomerella lagenarium (Colletotrichum lagenarium); assay: Fungicidal activity against Glomerella lagenarium (Colletotrichum lagenarium) liquid culture / cucumber / preventative (anthracnose); assay type: cell-based; conditions: Colletotrichum orbiculare; 20 ppm in the applied formulation; liquid culture (PDB), growth inhibition measured photometrically after 3 to 4 days; compared to untreated control; read-out: disease control
Outline: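 Photometric read-out of fungal growth after 2–7 days, expressed as percent antifungal activity versus untreated check. Cryo-stored conidia in PDB; compound at 20 ppm; dark, 24 °C, 96% RH.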

Compound	inhibition of growth at 20 ppm [%]
COC(C)C(=O)N(Cc1ccc(-c2noc(C(F)(F)F)n2)cc1)OCC=C(Cl)Cl (stereo not drawn) [Compound 1.546, N-(3,3-dichloroallyloxy)-2-methoxy-N-[[4-[5-(trifluoromethyl)-1,2,4-oxadiazol-3-yl]phenyl]methyl]-propanamide]	≥ 80
O=C(C1OCCO1)N(Cc1ccc(-c2noc(C(F)(F)F)n2)cc1)OCC=C(Cl)Cl [Compound 1.547]	≥ 80
O=C(C1CC1)N(Cc1ccc(-c2noc(C(F)(F)F)n2)cc1)OCC=C(Cl)Cl [Compound 1.548, N-(3,3-dichloroallyloxy)-N-[[4-[5-(trifluoromethyl)-1,2,4-oxadiazol-3-yl]phenyl]methyl]-cyclopropane-carboxamide]	≥ 80
COCCC(=O)N(Cc1ccc(-c2noc(C(F)(F)F)n2)cc1)OCc1ccc(Cl)cc1 [Compound 1.549, N-[(4-chlorophenyl)-methoxy]-3-methoxy-N-[[4-[5-(trifluoromethyl)-1,2,4-oxadiazol-3-yl]phenyl]methyl]-propanamide]	≥ 80
COCC(=O)N(Cc1ccc(-c2noc(C(F)(F)F)n2)cc1)OCc1ccc(Cl)cc1 [Compound 1.551, N-[(4-chlorophenyl)-methoxy]-2-methoxy-N-[[4-[5-(trifluoromethyl)-1,2,4-oxadiazol-3-yl]phenyl]methyl]-acetamide]	≥ 80
O=C(CCl)N(Cc1ccc(-c2noc(C(F)(F)F)n2)cc1)OCc1ccc(Cl)cc1 [Compound 1.553, 2-chloro-N-[(4-chlorophenyl)-methoxy]-N-[[4-[5-(trifluoromethyl)-1,2,4-oxadiazol-3-yl]phenyl]methyl]-acetamide]	≥ 80
CCCC(=O)N(Cc1ccc(-c2noc(C(F)(F)F)n2)cc1)OCc1ccc(Cl)cc1 [Compound 1.554, N-[(4-chlorophenyl)-methoxy]-N-[[4-[5-(trifluoromethyl)-1,2,4-oxadiazol-3-yl]phenyl]methyl]-butanamide]	≥ 80
COCCCC(=O)N(Cc1ccc(-c2noc(C(F)(F)F)n2)cc1)OCc1ccc(Cl)cc1 [Compound 1.555, N-[(4-chlorophenyl)-methoxy]-4-methoxy-N-[[4-[5-(trifluoromethyl)-1,2,4-oxadiazol-3-yl]phenyl]methyl]-butanamide]	≥ 80
CC1(C(=O)N(Cc2ccc(-c3noc(C(F)(F)F)n3)cc2)OCc2ccc(Cl)cc2)COC1 [Compound 1.556, N-[(4-chlorophenyl)-methoxy]-3-methyl-N-[[4-[5-(trifluoromethyl)-1,2,4-oxadiazol-3-yl]phenyl]methyl]-oxetane-3-carboxamide]	≥ 80
O=C(C1CCCO1)N(Cc1ccc(-c2noc(C(F)(F)F)n2)cc1)OCc1ccc(Cl)cc1 (stereo not drawn) [Compound 1.557, N-[(4-chlorophenyl)-methoxy]-N-[[4-[5-(trifluoromethyl)-1,2,4-oxadiazol-3-yl]phenyl]methyl]-tetrahydrofuran-2-carboxamide]	≥ 80
O=C(C1CC1F)N(Cc1ccc(-c2noc(C(F)(F)F)n2)cc1)OCc1ccc(Cl)cc1 (stereo not drawn) [Compound 1.558, N-[(4-chlorophenyl)-methoxy]-2-fluoro-N-[[4-[5-(trifluoromethyl)-1,2,4-oxadiazol-3-yl]phenyl]methyl]-cyclopropane-carboxamide]	≥ 80
COC(C)C(=O)N(Cc1ccc(-c2noc(C(F)(F)F)n2)cc1)OCc1ccc(Cl)cc1 (stereo not drawn) [Compound 1.559, N-[(4-chlorophenyl)-methoxy]-2-methoxy-N-[[4-[5-(trifluoromethyl)-1,2,4-oxadiazol-3-yl]phenyl)methyl]-propanamide]	≥ 80
O=C(C1OCCO1)N(Cc1ccc(-c2noc(C(F)(F)F)n2)cc1)OCc1ccc(Cl)cc1 [Compound 1.560, N-[(4-chlorophenyl)-methoxy]-N-[[4-[5-(trifluoromethyl)-1,2,4-oxadiazol-3-yl]phenyl]methyl]-1,3-dioxolane-2-carboxamide]	≥ 80
O=C(C1CC1)N(Cc1ccc(-c2noc(C(F)(F)F)n2)cc1)OCc1ccc(Cl)cc1 [Compound 1.561, N-[(4-chlorophenyl)-methoxy]-N-[[4-[5-(trifluoromethyl)-1,2,4-oxadiazol-3-yl]phenyl]methyl]-cyclopropane-carboxamide]	≥ 80
CCCCON(Cc1ccc(-c2noc(C(F)(F)F)n2)cc1)C(=O)CC [Compound 1.588, N-butoxy-N-[[4-[5-(trifluoromethyl)-1,2,4-oxadiazol-3-yl]phenyl]methyl]-propanamide]	≥ 80
CCCCON(Cc1ccc(-c2noc(C(F)(F)F)n2)cc1)C(=O)C1CC1 [Compound 1.601, N-butoxy-N-[[4-[5-(trifluoromethyl)-1,2,4-oxadiazol-3-yl]phenyl]methyl]-cyclopropane-carboxamide]	≥ 80
CCCCON(Cc1ccc(-c2noc(C(F)(F)F)n2)cc1)C(=O)C(C)C [Compound 1.633, N-butoxy-2-methyl-N-[[4-[5-(trifluoromethyl)-1,2,4-oxadiazol-3-yl]phenyl]methyl]-propanamide]	≥ 80
CCCCON(Cc1ccc(-c2noc(C(F)(F)F)n2)cc1)C(=O)C1CCC1 [Compound 1.638, N-butoxy-N-[[4-[5-(trifluoromethyl)-1,2,4-oxadiazol-3-yl]phenyl]methyl]-cyclobutane-carboxamide]	≥ 80
CCCCON(Cc1ccc(-c2noc(C(F)(F)F)n2)cc1)C(=O)CC1CC1 [Compound 1.650, N-butoxy-2-cydopropyl-N-[[4-[5-(trifluoromethyl)-1,2,4-oxadiazol-3-yl]phenyl]methyl]-acetamide]	≥ 80
CON(Cc1ccc(-c2noc(C(F)(F)F)n2)cc1)C(=O)C(F)(F)F [Compound 1.780, 2,2,2-trifluoro-N-methoxy-N-[[4-[5-(trifluoromethyl)-1,2,4-oxadiazol-3-yl]phenyl]methyl]-acetamide]	≥ 80
CON(Cc1ccc(-c2noc(C(F)(F)F)n2)cc1)C(=O)n1ccnc1 [Compound 1.811, N-methoxy-N-[[4-[5-(trifluoromethyl)-1,2,4-oxadiazol-3-yl]phenyl]methyl]-imidazole-1-carboxamide]	≥ 80
CON(Cc1ccc(-c2noc(C(F)(F)F)n2)cc1)C(=O)OCC(C)C [Compound 2.8, isobutyl N-methoxy-N-[[4-[5-(trifluoromethyl)-1,2,4-oxadiazol-3-yl]phenyl]methyl]-carbamate]	≥ 80
CCCCCOC(=O)N(Cc1ccc(-c2noc(C(F)(F)F)n2)cc1)OC [Compound 2.9, pentyl N-methoxy-N-[[4-[5-(trifluoromethyl)-1,2,4-oxadiazol-3-yl]phenyl]methyl]-carbamate]	≥ 80
CON(Cc1ccc(-c2noc(C(F)(F)F)n2)cc1)C(=O)OCc1ccccc1 [Compound 2.10, benzyl N-methoxy-N-[[4-[5-(trifluoromethyl)-1,2,4-oxadiazol-3-yl]phenyl]methyl]-carbamate]	≥ 80
CCCCOC(=O)N(Cc1ccc(-c2noc(C(F)(F)F)n2)cc1)OC [Compound 2.12, butyl N-methoxy-N-[[4-[5-(trifluoromethyl)-1,2,4-oxadiazol-3-yl]phenyl]methyl]-carbamate]	≥ 80
CON(Cc1ccc(-c2noc(C(F)(F)F)n2)cc1)C(=O)OCCCCCl [Compound 2.13, 4-chlorobutyl N-methoxy-N-[[4-[5-(trifluoromethyl)-1,2,4-oxadiazol-3-yl]phenyl]methyl]-carbamate]	≥ 80
CON(Cc1ccc(-c2noc(C(F)(F)F)n2)cc1)C(=O)OCC(C)(C)C [Compound 2.18, 2,2-dimethylpropyl N-methoxy-N-[[4-[5-(trifluoromethyl)-1,2,4-oxadiazol-3-yl]phenyl]methyl]-carbamate]	≥ 80
CON(Cc1ccc(-c2noc(C(F)(F)F)n2)cc1)C(=O)OC(Cl)C(C)C (stereo not drawn) [Compound 2.19, (1-chloro-2-methyl-propyl) N-methoxy-N-[[4-[5-(trifluoromethyl)-1,2,4-oxadiazol-3-yl]phenyl]methyl]-carbamate]	≥ 80
